Data: patent US20250134379A1, “Methods for Localization of Cancerous Tissue Using Fluorescent Molecular Imaging Agent for Diagnosis or Treatment” (Vergent Bioscience, Inc., priority 2023, published 2025)

Assays:
tumor [1] = test: Intraoperative NIR imaging of patients given VGT-309 before surgery; type: in vivo, human; details: patient
Source text: A patient appeared to have a localized tumor, as identified by the preoperative scans, but the surgeon identified lymph node spread during resection with VGT-309. […] Absent from these scans were any evidence of spread to other areas of the lungs or the lymph nodes. […] […] The surgeon also visually examined and biopsied the proximal lymph nodes, neither of which indicated the tumor had spread. […] The surgeon was therefore able to perform a biopsy, which confirmed that the cancer had spread, and as a result re-staged the patient in real-time and performed a radical lymph node dissection. At the end of the procedure, the surgeon removed all traces of the cancer.
However, it was confirmed under NIR that this abnormal lung tissue was in fact cancerous.

cancerous tissue = test: Preclinical / animal model studies of duration of VGT-309 fluorescence in tissue; type: in vivo
Source text: There are several molecular imaging agents that are currently in various stages of development and testing, but of these agents VGT-309 is particularly advantageous. VGT-309 targets and covalently binds to cathepsin targets, which are present in larger amounts in solid tumors and tumor margins than in normal tissues. When this binding occurs, the quencher is cleaved from the molecule and VGT-309 becomes “active” at which point the tumor will fluoresce under near-infrared (NIR) light.

tumor [2] = test: Phase 2 study of VGT-309 in Australia: clinically significant events (CSEs) during tumor removal; type: in vivo, human; details: Phase 2 study in Australia
Source text: CSEs are one way to measure whether an imaging agent, such as VGT-309, adds a clinical benefit to the diagnosis and treatment process. In this context, CSEs generally fall into one of three categories: (1) localization of hard-to-find tumors, (2) identification of positive resection margins, and (3) identification of additional primary and metastatic lesions that were not previously detected using existing technologies. […] In a Phase 2 study of VGT-309 in Australia, one third of patients experienced a […]

For `CC1(C)C(/C=C/C2=C(Cl)C(=C/C=C3/N(CCCCCC(=O)NCCNC(=O)c4c(F)c(F)c(OCC(=O)[C@H](CCCCNC(=O)CCCCCN5/C(=C/C=C/C=C/C=C\C6=[N+](CCCCS(=O)(=O)O)c7ccc8ccccc8c7C6(C)C)C(C)(C)c6c5ccc5ccccc65)NC(=O)[C@H](Cc5ccccc5)NC(=O)OCc5ccccc5)c(F)c4F)c4ccc5cc(S(=O)(=O)O)ccc5c4C3(C)C)/CCC2)=[N+](CCCS(=O)(=O)O)c2ccc(N(CCCS(=O)(=O)O)CCCS(=O)(=O)O)cc21` [VGT-309], the “detection of lymph node spread under NIR” value (tumor [1]; Example 2, 0.16 mg/kg, approximately 21 hours prior to surgery, biopsy confirmed that the cancer had spread) was “unexpected fluorescence in a more distant lymph node”, the “identification of metastatic spread / additional tumors under NIR” value (tumor [1]; Example 3, 0.32 mg/kg, approximately 18.5 hours prior to surgery) was “identify additional tumors using NIR” and the “time following administration out to which VGT-309 may continue to emit a signal in tissue” value (cancerous tissue; animal model studies suggest) was “seven days”. The “time after administration at which VGT-309 can fluoresce cancerous tissue” value (cancerous tissue; based on preclinical studies) was “two hours to four days” and the “fraction of patients who experienced a clinically significant event (CSE)” value (tumor [2]) was “one third”.
